# Data reported in patent publication EP4615450B1 (priority 2023, dated 2024).
# System: SARS-CoV2
# Experiment: PCR test (Ct value) in patients, three successive lozenges (Beispiel 2)
# Format: in vivo, Patienten
# Conditions: result in words; over time with successive administration of several lozenges, also versus placebo
# Source text: Darüber hinaus wird die antivirale Wirksamkeit einer erfindungsgemäß einsetzbaren Zusammensetzung in Form der in Beispiel 1 beschriebenen Octenidindihydrochlorid-Lutschtablette an weiteren Patienten untersucht. Die Patienten weisen im Hinblick auf SARS-CoV2 vor Verabreichung der Lutschtabletten einen positiven PCR-Test auf (in der nachfolgenden Tabelle 3 unter "Ct0" angegeben).
# Die Patienten erhalten insgesamt jeweils drei Octenidindihydrochlorid-Lutschtabletten in definierter zeitlicher Abfolge. Die Lutschzeit beträgt für eine jeweilige Tablette 15 Minuten, wobei jeweils nach jeweils weiteren 15 Minuten ein PCR-Test durchgeführt wird. Der PCR-Test nach Verabreichung der ersten Octenidindihydrochlorid-Lutschtablette wird somit 30 Minuten nach erfolgter Verabreichung durchgeführt (in der nachfolgenden Tabelle 3 unter "Ct1" angeführt).
# Die zweite Octenidindihydrochlorid-Lutschtablette wird 2,5 Stunden nach Verabreichung der ersten Lutschtablette verabreicht, wobei der diesbezügliche PCR-Test 3 Stunden nach Verabreichung der ersten Lutschtablette und 30 Minuten nach Verabreichung der zweiten Lutsch-tablette durchgeführt wird (in der nachfolgenden Tabelle 3 unter "Ct2" angeführt). […]
smiles,measurement,value
"CCCCCCCCNc1cc[n+](CCCCCCCCCC[n+]2ccc(NCCCCCCCC)cc2)cc1.[Cl-].[Cl-] [Octenidindihydrochlorid, 1,1'-(1,10-Decandiyl)bis[4-(octylamino)pyridinium]-dichlorid]",Ct-Wert,deutliche und nachhaltige Zuname des jeweiligen Ct-Werts
